In ChEMBL document CHEMBL5727378, “Benzenesulfonamide derivatives as inverse agonists of retinoid-related orphan receptor gamma (RORγ(T))” (2019):

Each molecule was assayed against T1, Nuclear receptor ROR-gamma (Homo sapiens, UniProt P51449) (assay: GAL4-RORgamma Transactivation: The RORγ transactivation model was developed from the line HG5LN, which is a HeLa line that stably expresses a luciferase reporter gene controlled by a pentamer of the GAL4 recognition domain of yeast and of a β-globin promoter. The HG5LN line was stably transfected by the DNA-binding domain (DBD) of GAL4 fused to the ROR gamma ligand-binding domain (LBD). Molecules that inhibit the ROR gamma constitutive activity reduce the luciferase expression, thus leading to a reduction in the emitted luminescence.The cells are seeded in 384-well plates (5000 cells in 45 μL/well of culture medium containing 10% fetal calf serum) and incubated for 4 hours at 37° C., 5% CO2. 5 μL of the test molecules (compounds described in the tables described above) are then added to each well and the plates are incubated for 18 hours at a temperature of 37° C. under 5% of CO2. 20 μL of luciferase substrate (Promega) are added to each well and the luminescence emitted is read by a microplate reader.The luminescence units (“RLU”) are normalized by positive controls (“POS” containing a saturated concentration of benzenesulfonamide, N-(2,2,2-trifluoroethyl)-N-[4-[2,2,2-trifluoro-1-hydroxy-1-(trifluoromethyl)ethyl]phenyl]) and negative controls (“NEG” containing DMSO): % inhibition=((RLU−NEG)*100)/(POS−NEG). The IC50 values are calculated from a 4-parameter logistic model using the XLFit software (IDBS).).
T1 sequence (P51449 whole entry): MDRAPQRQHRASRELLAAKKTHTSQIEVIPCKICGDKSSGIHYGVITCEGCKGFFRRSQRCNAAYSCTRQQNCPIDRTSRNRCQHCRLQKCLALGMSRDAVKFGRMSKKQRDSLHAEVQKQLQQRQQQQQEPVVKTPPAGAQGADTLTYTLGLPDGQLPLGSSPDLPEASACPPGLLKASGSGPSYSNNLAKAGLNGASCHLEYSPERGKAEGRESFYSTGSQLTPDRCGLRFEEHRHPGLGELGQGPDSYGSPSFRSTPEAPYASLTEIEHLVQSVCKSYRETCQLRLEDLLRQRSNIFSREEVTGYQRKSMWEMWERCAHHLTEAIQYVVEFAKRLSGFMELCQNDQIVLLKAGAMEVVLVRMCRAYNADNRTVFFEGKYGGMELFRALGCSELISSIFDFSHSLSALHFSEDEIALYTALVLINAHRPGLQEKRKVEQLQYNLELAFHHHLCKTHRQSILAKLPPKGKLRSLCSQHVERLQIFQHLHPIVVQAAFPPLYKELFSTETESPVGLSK

| Compound | IC50 [nM] |
| --- | --- |
| CCc1ccc(N(CC(C)C)S(=O)(=O)c2ccc3c(c2)N(CC2CCOCC2)CCS3(=N)=O)cc1 (stereo not drawn) | > 1000 |
| CCc1ccc(N(CC(C)C)S(=O)(=O)c2ccc(NC3CCNC(=O)C3)c(S(C)(=N)=O)c2)cc1 (stereo not drawn) | > 1000 |
| CCc1ccc(N(CC(C)C)S(=O)(=O)c2ccc(OCC3CCSCC3)c(S(C)(=N)=O)c2)cc1 (stereo not drawn) | < 100 |
